How the values were obtained:
[1] = system: Calpain activity in SH-SY5Y cells; assay: SH-SY5Y Suc-LLVY-AMC fluorescence assay; assay type: cell-based; conditions: Homo sapiens; SH-SY5Y cells, 100 uM Suc-LLVY-AMC; read-out: SH-SY5Y + AMC IC50
[2] = molecular target: T1, Human Calpain 1/NS1 (Homo sapiens, UniProt P07384); assay: Calpain inhibition, continuous fluorescence (FRET substrate) assay, calpain 1; assay type: biochemical; conditions: SensoLyte 520 FRET substrate, 25C
T1 sequence (P07384 1-714): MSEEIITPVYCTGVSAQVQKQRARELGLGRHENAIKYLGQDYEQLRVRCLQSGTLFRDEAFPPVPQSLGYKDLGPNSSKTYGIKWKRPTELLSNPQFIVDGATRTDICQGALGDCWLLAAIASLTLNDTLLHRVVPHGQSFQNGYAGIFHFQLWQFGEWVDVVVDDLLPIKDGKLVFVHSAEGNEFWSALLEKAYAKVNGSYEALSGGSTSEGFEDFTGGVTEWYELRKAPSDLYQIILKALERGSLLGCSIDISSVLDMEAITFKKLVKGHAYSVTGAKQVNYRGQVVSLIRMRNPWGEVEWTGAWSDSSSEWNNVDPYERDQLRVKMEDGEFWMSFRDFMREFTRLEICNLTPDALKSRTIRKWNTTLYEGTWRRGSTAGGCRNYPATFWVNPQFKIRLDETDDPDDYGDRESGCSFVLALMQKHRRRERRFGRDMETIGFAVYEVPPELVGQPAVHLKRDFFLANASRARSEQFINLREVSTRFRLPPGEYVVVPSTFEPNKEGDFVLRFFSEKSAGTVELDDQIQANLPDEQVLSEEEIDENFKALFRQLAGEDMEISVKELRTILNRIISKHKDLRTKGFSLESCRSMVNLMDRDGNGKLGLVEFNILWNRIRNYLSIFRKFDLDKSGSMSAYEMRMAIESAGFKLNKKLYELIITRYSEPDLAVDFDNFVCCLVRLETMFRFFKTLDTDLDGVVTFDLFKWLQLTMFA
T1 sequence (P04632 1-268 partner): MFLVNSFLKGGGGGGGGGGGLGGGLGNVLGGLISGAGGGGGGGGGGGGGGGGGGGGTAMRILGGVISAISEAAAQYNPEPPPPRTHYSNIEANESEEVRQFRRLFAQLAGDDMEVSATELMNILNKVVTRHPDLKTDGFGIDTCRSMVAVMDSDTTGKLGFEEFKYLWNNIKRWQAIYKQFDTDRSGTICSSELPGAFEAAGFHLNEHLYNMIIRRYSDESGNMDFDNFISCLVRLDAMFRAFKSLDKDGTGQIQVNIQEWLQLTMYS
Procedure: (§1) Calpain 1, 2, and 9 activity and inhibition thereof was assessed by means of a continuous fluorescence assay. The SensoLyte 520 Calpain substrate (Anaspec Inc) was optimized for detecting calpain activity. This substrate contains an internally quenched 5-FAM/QXLTM 520 FRET pair. Calpains 1, 2, and 9 cleave the FRET substrate into two separate fragments resulting in an increase of 5-FAM fluorescence that is proportional to calpain activity Assays were typically setup in black 384-well plates using automated liquid handling as follows. Calpain assay base buffer typically contains 50 mM Tris, pH 7.5, 100 mM NaCl and 1 mM DTT. Inhibitors were serially diluted in DMSO and used to setup 2× mixtures with calpains in the aforementioned buffer. After incubation at ambient temperature (25C), the reaction was initiated by adding a 2× mix of the fluorescent peptide substrate and CaCl2) (required for in-situ calpain activation) in the same buffer. Reaction progress curve data were typically collected for 10 min using excitation/emission wavelengths of 490 nm/520 nm on SpectraMax i3× or the FLIPR-Tetra plate readers (Molecular Devices Inc). Reaction rates were calculated from progress curve slopes typically over 1-5 min. Dose response curves (rate vs. log inhibitor concentration) were typically fit to a 4-parameter logistic function to extract IC50 values.

[3] = system: Calpain activity in SH-SY5Y cells; assay: SH-SY5Y spectrin breakdown product (SBDP-150) western blot assay; assay type: cell-based; conditions: Homo sapiens; SH-SY5Y cells, 25 uM A23187, SBDP-150 western blot; read-out: SH-SY5Y Spectrin IC50
[4] = molecular target: T2, Human Calpain 2/NS1 (Homo sapiens, UniProt P17655); assay: Calpain inhibition, continuous fluorescence (FRET substrate) assay, calpain 2; assay type: biochemical; conditions: SensoLyte 520 FRET substrate, 25C
T2 sequence (P17655 1-700): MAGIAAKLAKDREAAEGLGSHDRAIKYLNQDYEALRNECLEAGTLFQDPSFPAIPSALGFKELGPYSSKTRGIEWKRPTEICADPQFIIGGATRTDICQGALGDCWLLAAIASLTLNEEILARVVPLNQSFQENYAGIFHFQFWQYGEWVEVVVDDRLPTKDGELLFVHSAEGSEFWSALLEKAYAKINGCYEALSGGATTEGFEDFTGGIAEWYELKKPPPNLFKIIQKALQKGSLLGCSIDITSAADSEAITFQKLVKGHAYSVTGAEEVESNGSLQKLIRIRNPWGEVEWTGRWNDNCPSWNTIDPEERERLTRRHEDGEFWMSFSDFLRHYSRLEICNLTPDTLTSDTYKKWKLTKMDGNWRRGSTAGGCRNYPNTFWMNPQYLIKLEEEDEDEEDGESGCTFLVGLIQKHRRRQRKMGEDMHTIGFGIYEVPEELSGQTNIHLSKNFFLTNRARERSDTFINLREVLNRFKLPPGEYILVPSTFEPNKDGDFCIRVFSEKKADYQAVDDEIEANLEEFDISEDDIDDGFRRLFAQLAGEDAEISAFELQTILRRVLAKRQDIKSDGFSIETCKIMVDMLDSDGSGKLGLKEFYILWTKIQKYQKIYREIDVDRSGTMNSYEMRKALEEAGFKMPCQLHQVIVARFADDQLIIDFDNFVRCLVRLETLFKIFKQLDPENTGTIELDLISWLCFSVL
T2 sequence (P04632 1-268 partner): T1 sequence (P04632 1-268 partner)
Procedure: as §1

[5] = molecular target: T3, Human Calpain 9/NS1 (Homo sapiens, UniProt O14815); assay: Calpain inhibition, continuous fluorescence (FRET substrate) assay, calpain 9; assay type: biochemical; conditions: SensoLyte 520 FRET substrate, 25C
T3 sequence (O14815 1-690): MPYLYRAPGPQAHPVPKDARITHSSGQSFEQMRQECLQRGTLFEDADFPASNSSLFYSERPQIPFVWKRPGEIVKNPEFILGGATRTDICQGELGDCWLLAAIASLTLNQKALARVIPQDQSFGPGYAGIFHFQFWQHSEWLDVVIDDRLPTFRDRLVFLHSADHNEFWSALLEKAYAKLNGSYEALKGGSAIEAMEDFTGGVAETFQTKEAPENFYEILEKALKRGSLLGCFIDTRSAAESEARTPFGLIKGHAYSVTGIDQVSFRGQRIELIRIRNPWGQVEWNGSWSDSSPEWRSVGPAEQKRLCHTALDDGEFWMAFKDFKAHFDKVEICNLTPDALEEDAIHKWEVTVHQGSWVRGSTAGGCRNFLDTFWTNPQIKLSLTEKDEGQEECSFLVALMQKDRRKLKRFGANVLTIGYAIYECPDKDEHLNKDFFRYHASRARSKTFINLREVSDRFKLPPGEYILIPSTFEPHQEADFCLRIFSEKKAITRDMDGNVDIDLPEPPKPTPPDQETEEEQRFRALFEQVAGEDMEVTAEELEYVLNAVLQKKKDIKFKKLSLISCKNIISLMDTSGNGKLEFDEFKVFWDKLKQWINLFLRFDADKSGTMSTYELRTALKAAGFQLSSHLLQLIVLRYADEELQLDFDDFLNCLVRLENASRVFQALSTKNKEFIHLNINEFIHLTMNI
T3 sequence (P04632 1-268 partner): T1 sequence (P04632 1-268 partner)
Procedure: as §1

Row | SMILES | IC50 [1] | IC50 [2] | IC50 [3] | IC50 [4] | IC50 [5]
1 | Cn1cc(C(=O)NC(Cc2ccccc2)C(=O)C(N)=O)c(-c2cccc3ccncc23)n1 (stereo not shown) [Compound 54] | > 25 µM | < 3 µM | > 25 µM | < 3 µM | < 3 µM
2 | Cn1cc(C(=O)NC(Cc2ccccc2)C(=O)C(N)=O)c(-c2cccc3scnc23)n1 (stereo not shown) [Compound 51, N-(4-AMINO-3,4-DIOXO-1-PHENYLBUTAN-2-YL)-3-(BENZO[D]THIAZOL-4-YL)-1-METHYL-1H-PYRAZOLE-4-CARBOXAMIDE] | > 25 µM | < 3 µM | 10 to 25 µM | < 3 µM | < 3 µM
3 | N#CC(Cc1ccccc1)NC(=O)c1nsnc1-c1ccccc1 (stereo not shown) [Compound 82, N-(1-CYANO-2-PHENYLETHYL)-4-PHENYL-1,2,5-THIADIAZOLE-3-CARBOXAMIDE] | > 25 µM | > 10 µM | > 25 µM | > 10 µM | > 10 µM
4 | CC(C)n1c(=O)[nH]c2c(-c3nn(C)cc3C(=O)NC(Cc3ccccc3)C(=O)C(N)=O)cccc21 (stereo not shown) [Compound 103, N-(4-AMINO-3,4-DIOXO-1-PHENYLBUTAN-2-YL)-3-(1-ISOPROPYL-2-OXO-2,3-DIHYDRO-1H-BENZO[D]IMIDAZOL-4-YL)-1-METHYL-1H-PYRAZOLE-4-CARBOXAMIDE] | 10 to 25 µM | < 3 µM | < 10 µM | < 3 µM | < 3 µM
5 | O=C(NC(Cc1ccccc1)C(=O)c1nc[nH]n1)c1nsnc1-c1ccccc1 (stereo not shown) [Compound 104, N-(1-OXO-3-PHENYL-1-(H-1,2,4-TRIAZOL-3-YL)PROPAN-2-YL)-4-PHENYL-1,2,5-THIADIAZOLE-3-CARBOXAMIDE] | > 25 µM | > 10 µM | > 25 µM | > 10 µM | > 10 µM
6 | Cn1cc(C(=O)NC(Cc2ccccc2)C(=O)C(N)=O)c(-n2cnc3cc(F)ccc32)n1 (stereo not shown) [Compound 48, N-(4-AMINO-3,4-DIOXO-1-PHENYLBUTAN-2-YL)-3-(5-FLUORO-1H-BENZO[D]IMIDAZOL-1-YL)-1-METHYL-1H-PYRAZOLE-4-CARBOXAMIDE] | 10 to 25 µM | < 3 µM | < 10 µM | < 3 µM | < 3 µM
7 | Cc1nc(-c2ccccc2F)c(C(=O)NC(Cc2ccccc2)C(=O)C(=O)O)o1 (stereo not shown) [Compound 64, 3-(4-(2-FLUOROPHENYL)-2-METHYLOXAZOLE-5-CARBOXAMIDO)-2-OXO-4-PHENYLBUTANOIC ACID] | < 10 µM | < 3 µM | > 25 µM | < 3 µM | < 3 µM
8 | COC(=O)C(=O)C(Cc1ccccc1)NC(=O)c1cn(C2CC2)nc1-c1ccccc1 (stereo not shown) [Compound 41, METHYL 3-(1-CYCLOPROPYL-3-PHENYL-1H-PYRAZOLE-4-CARBOXAMIDO)-2-OXO-4-PHENYLBUTANOATE] | < 10 µM | < 3 µM | > 25 µM | < 3 µM | < 3 µM

Further lines, results first:

Row | IC50 [1] | IC50 [2] | IC50 [3] | IC50 [4] | IC50 [5] | SMILES
9 | < 10 µM | < 3 µM | > 25 µM | < 3 µM | < 3 µM | Cc1nc(-c2cccc3sccc23)c(C(=O)NC(Cc2ccccc2)C(=O)C(N)=O)o1 (stereo not shown) [Compound 88, N-(4-AMINO-3,4-DIOXO-1-PHENYLBUTAN-2-YL)-4-(BENZO[b]THIOPHEN-4-YL)-2-METHYLOXAZOLE-5-CARBOXAMIDE]
10 | < 10 µM | < 3 µM | < 10 µM | < 3 µM | < 3 µM | NC(=O)C(=O)C(Cc1ccccc1)NC(=O)c1cn(C(F)F)nc1-c1coc(Cl)c1 (stereo not shown) [Compound 21, N-(4-AMINO-3,4-DIOXO-1-PHENYLBUTAN-2-YL)-3-(5-CHLOROFURAN-3-YL)-1-(DIFLUOROMETHYL)-1H-PYRAZOLE-4-CARBOXAMIDE]
11 | < 10 µM | < 3 µM | < 10 µM | < 3 µM | < 3 µM | Cn1cc(C(=O)NC(Cc2ccccc2)C(=O)C(N)=O)c(-c2cccc3oc(=O)[nH]c23)n1 (stereo not shown) [Compound 35, N-(4-AMINO-3,4-DIOXO-1-PHENYLBUTAN-2-YL)-1-METHYL-3-(2-OXO-2,3-DIHYDROBENZO[D]OXAZOL-4-YL)-1H-PYRAZOLE-4-CARBOXAMIDE]
12 | < 10 µM | < 3 µM | 10 to 25 µM | < 3 µM | < 3 µM | Cc1nc(-c2cc(Cl)oc2C)c(C(=O)NC(Cc2ccccc2)C(=O)C(N)=O)o1 (stereo not shown) [Compound 98, N-(4-AMINO-3,4-DIOXO-1-PHENYLBUTAN-2-YL)-4-(5-CHLORO-2-METHYLFURAN-3-YL)-2-METHYLOXAZOLE-5-CARBOXAMIDE]
13 | < 10 µM | < 3 µM | < 10 µM | < 3 µM | < 3 µM | NC(=O)C(=O)C(Cc1ccccc1)NC(=O)c1cn(C(F)F)nc1-c1cccc2ncsc12 (stereo not shown) [Compound 7, N-(4-AMINO-3,4-DIOXO-1-PHENYLBUTAN-2-YL)-3-(BENZO[D]THIAZOL-7-YL)-1-(DIFLUOROMETHYL)-1H-PYRAZOLE-4-CARBOXAMIDE]
14 | < 10 µM | > 10 µM | > 25 µM | 3 to 10 µM | 3 to 10 µM | Cc1cc(C(=O)NC(Cc2ccccc2)C(=O)C(N)=O)nn1-c1ncc2ccccc2n1 (stereo not shown) [Compound 27, N-(4-AMINO-3,4-DIOXO-1-PHENYLBUTAN-2-YL)-5-METHYL-1-(QUINAZOLIN-2-YL)-1H-PYRAZOLE-3-CARBOXAMIDE]

Reference: patent publication US20210009564A1, “CALPAIN MODULATORS AND THERAPEUTIC USES THEREOF” (BLADE THERAPERTICS, INC., priority 2018, published 2021)
